Assay results published in patent US20060167013A1, “Inhibitors for excessive accumulation of sodium ion in cells” (priority 2002, published 2006).

System: ischemic and reperfused hearts
Test: Ischemia and reperfusion of the isolated rat heart perfused by the Langendorff method: ventricular total sodium content and recovery in contractile tension
Conditions: for Sodium Content: 45 min ischemia, 30 min reperfusion, atomic absorption; for Recovery in Contractile Tension: at 30 min after reperfusion, relative to tension at beginning of experiment; for increase of ventricular sodium content induced by ischemia and reperfusion (result in words): added in the reperfusion solution
Method: The heart of the rat was excised and perfused with Krebs buffer solution (in mM: NaCl 119, KCl 4.6, MgSO4.7H2O 1.2, CaCl2·2H2O 1.3, NaHCO3 25, KH2PO4 1.2, glucose 11; pH 7.4, 37° C.) according to the Langendorff method. A thread was attached to the apex of the heart, and then the end was connected to a tension transducer to determine contractile tension. The preparation was stabilized, and then myocardial ischemia was induced by reducing a perfusion pressure (for 45 minutes). After reperfusion for 30 min, the heart was liquefied in nitric acid, and ventricular total sodium content was determined by atomic absorption analysis. Contractile tension was measured during the experiment, and a recovery rate in the contractile tension at 30 min after the reperfusion, relative to the contractile tension at the beginning of the experiment, was used as an index of cardiac contractility.

| SMILES | Sodium Content (10^−3 M) [µmol/g] | Recovery in Contractile Tension (10^−3 M) [%] | Sodium Content (10^−4 M) [µmol/g] | Recovery in Contractile Tension (10^−4 M) [%] | Sodium Content (10^−5 M) [µmol/g] | Recovery in Contractile Tension (10^−5 M) [%] | increase of ventricular sodium content induced by ischemia and reperfusion (result in words) | Sodium Content (10^−6 M in reperfusion solution) [µmol/g] | Recovery in Contractile Tension (10^−6 M) [%] | Sodium Content (10^−7 M in reperfusion solution) [µmol/g] | Recovery in Contractile Tension (10^−7 M) [%] | Sodium Content (10^−8 M in reperfusion solution) [µmol/g] | Recovery in Contractile Tension (10^−8 M) [%] | Sodium Content (10^−9 M in reperfusion solution) [µmol/g] | Recovery in Contractile Tension (10^−9 M) [%] |
| --- | --- | --- | --- | --- | --- | --- | --- | --- | --- | --- | --- | --- | --- | --- | --- |
| N=C(N)NC(=O)c1nc(Cl)c(N)nc1N [Amiloride, reference compound] | 64.8 ± 3.7 | 59.0 ± 4.7 | 71.8 ± 3.3 | 45.4 ± 3.8 | 77.9 ± 3.9 | 33.3 ± 7.2 | no effect |  |  |  |  |  |  |  |  |
| Cc1ccc(N2CCNCC2)c(S(=O)(=O)O)c1.O [MCC-135, 5-methyl-2-(1-piperazinyl)benzenesulfonic acid monohydrate] |  |  |  |  |  |  | suppressed | 59.9 ± 2.3 | 79.4 ± 4.7 | 62.2 ± 0.6 | 68.4 ± 3.2 | 68.7 ± 3.7 | 49.1 ± 2.9 | 68.4 ± 6.2 | 40.0 ± 4.9 |
